Measurements as given in publication PMC6130513, “In vitro inhibitory effects of Friedelin on human liver cytochrome P450 enzymes” (Pharmaceutical Biology, 2018).

Experiments:
P-glycoprotein (P-gp) = test system: P-glycoprotein (P-gp); set-up: method as in Lee et al. [2017]; settings: ref Lee et al. [2017]; cited from earlier work
CYP3A4 [1] = target: T1, CYP3A4 (Homo sapiens, UniProt P08684); test: CYP3A4 inhibition in pooled human liver microsomes (testosterone 6β-hydroxylation); type: in vitro ADME; settings: pooled HLMs
T1 construct: effects of Friedelin on CYP3A4 catalyzed reactions (testosterone 6β-hydroxylation) in pooled HLM; from tissue; host or cells: pooled human liver microsomes
T1 sequence (P08684 whole entry): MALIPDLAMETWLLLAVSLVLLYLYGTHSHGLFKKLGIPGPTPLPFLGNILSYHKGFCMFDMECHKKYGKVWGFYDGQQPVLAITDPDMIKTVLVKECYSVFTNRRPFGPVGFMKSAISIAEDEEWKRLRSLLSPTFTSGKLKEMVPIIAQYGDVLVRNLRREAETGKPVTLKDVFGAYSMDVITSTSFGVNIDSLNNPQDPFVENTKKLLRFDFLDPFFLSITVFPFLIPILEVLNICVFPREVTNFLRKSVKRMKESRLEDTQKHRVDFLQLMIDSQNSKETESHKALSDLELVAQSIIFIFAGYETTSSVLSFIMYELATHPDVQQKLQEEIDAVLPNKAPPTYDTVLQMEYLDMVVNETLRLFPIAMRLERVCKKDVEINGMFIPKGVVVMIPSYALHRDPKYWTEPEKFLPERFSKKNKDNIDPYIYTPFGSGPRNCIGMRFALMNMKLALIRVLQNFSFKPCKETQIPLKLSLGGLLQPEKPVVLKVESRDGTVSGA
Description: (§1) All incubations were performed in triplicate, and the mean values were utilized. The typical incubation systems contained 100 mM potassium phosphate buffer (pH 7.4), NADPH generating system (1 mM NADP^+, 10 mM glucose-6-phosphate, 1 U/mL of glucose-6-phosphate dehydrogenase, and 4 mM MgCl2), the appropriate concentration of HLMs, a corresponding probe substrate and Friedelin (or positive inhibitor for different probe reactions) in a final volume of 200 μL.
(§2) The concentration of Friedelin was 100 μM, and the positive inhibitor concentrations were as follows: 1 μM ketoconazole for CYP3A4, 10 μM furafylline for CYP1A2, 10 μM tranylcypromine for CYP2A6, 50 μM clomethiazole for CYP2E1, 10 μM quinidine for CYP2D6, 10 μM sulfaphenazole for CYP2C9, 50 μM tranylcypromine for CYP2C19, 5 μM montelukast for CYP2C8. Probe substrates, positive inhibitors (except for dextromethorphan and quinidine which were dissolved in water) and Friedelin were dissolved in methanol, with a final concentration of 1% (v/v) and 1% neat methanol was added to the incubations without inhibitor. There was a 3 min preincubation period (at 37 °C) before the reaction was initiated by adding an NADPH-generating system. The reaction was terminated by adding a 100 μL acetonitrile (10% trichloroacetic acid for CYP2A6) internal standard mix, and the solution was placed on ice. The mixture was centrifuged at 12,000 rpm for 10 min, and an aliquot (50 μL) of the supernatant was transferred for HPLC analysis. The instrument used in this study were Agilent 1260 series instrument with DAD and FLD detector, and the quantitative assay for the corresponding metabolites was performed as previously reported (Lang et al. [2016]; Zhang et al. [2017]).
(§3) Friedelin (100 μM) was used to initially screen for its direct inhibitory effects toward different human CYP isoforms. […] Ki values were obtained by incubating various concentrations of different probe substrates (20–100 μM testosterone, 25–200 μM chlorzoxazone) in the presence of 0–50 μM Friedelin.
(§4) The enzyme kinetic parameters for the probe reaction were estimated from the best fit line using least-squares linear regression of the inverse substrate concentration versus the inverse velocity (Lineweaver–Burk plots), and the mean values were used to calculate Vmax and Km. Inhibition data from the experiments that were conducted using multiple compound concentrations were represented by Dixon plots, and inhibition constant (Ki) values were calculated using nonlinear regression according to the following equation: v=(VmaxS)/(Km(1+I/Ki)+S), where I is the concentration of the compound, Ki is the inhibition constant, S is the concentration of the substrate, and Km is the substrate concentration at half the maximum velocity (Vmax) of the reaction. […]

CYP2C9 = target: T2, CYP2C9 (Homo sapiens, UniProt P11712); test: CYP2C9 inhibition in pooled human liver microsomes (diclofenac 4'-hydroxylation); type: in vitro ADME; settings: Friedelin 100 μM, pooled HLMs
T2 construct: from tissue; host or cells: human liver microsomes
T2 sequence (P11712 whole entry): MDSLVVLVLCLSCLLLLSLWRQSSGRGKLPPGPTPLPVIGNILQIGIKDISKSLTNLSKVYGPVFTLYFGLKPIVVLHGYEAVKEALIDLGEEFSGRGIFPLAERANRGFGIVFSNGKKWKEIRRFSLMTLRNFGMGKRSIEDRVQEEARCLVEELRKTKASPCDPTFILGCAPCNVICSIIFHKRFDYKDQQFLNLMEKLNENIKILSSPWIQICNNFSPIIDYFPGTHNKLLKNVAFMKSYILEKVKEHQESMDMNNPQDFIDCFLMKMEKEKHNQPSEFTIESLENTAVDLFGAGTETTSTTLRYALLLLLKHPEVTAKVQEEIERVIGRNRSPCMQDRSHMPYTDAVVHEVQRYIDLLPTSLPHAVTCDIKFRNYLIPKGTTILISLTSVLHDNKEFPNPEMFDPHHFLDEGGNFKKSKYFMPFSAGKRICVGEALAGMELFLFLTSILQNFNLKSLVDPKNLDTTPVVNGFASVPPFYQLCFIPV
Description: as §1
as §2, with “There was a 3 min preincubation period (at 37 °C) before the reaction was initiated by adding an NADPH-generating system. The reaction was terminated by adding a 100 μL acetonitrile (10% trichloroacetic acid for CYP2A6) internal standard mix, and the solution was placed on ice. The mixture was centrifuged at 12,000 rpm for 10 min, and an aliquot (50 μL) of the supernatant was transferred for HPLC analysis.” left out, “[2017]). […]” for “[2017]).”

CYP2C19 = target: T3, CYP2C19 (Homo sapiens, UniProt P33261); test: CYP2C19 inhibition in pooled human liver microsomes (S-mephenytoin 4-hydroxylation); type: in vitro ADME; settings: Friedelin 100 μM, pooled HLMs
T3 construct: from tissue; host or cells: human liver microsomes
T3 sequence (P33261 whole entry): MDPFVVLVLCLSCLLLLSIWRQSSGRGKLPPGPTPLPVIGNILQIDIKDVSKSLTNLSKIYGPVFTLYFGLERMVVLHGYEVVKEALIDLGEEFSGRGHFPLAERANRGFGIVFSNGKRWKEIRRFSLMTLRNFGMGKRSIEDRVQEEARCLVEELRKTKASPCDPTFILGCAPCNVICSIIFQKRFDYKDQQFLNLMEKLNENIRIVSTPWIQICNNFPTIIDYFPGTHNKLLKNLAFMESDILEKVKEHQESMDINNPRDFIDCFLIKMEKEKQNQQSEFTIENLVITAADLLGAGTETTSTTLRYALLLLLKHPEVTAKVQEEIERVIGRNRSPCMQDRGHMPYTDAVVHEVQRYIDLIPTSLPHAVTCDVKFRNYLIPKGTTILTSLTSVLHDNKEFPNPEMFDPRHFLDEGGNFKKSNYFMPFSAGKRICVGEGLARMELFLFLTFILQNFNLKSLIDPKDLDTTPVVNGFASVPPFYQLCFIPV
Description: as §1
as §2, with “There was a 3 min preincubation period (at 37 °C) before the reaction was initiated by adding an NADPH-generating system. The reaction was terminated by adding a 100 μL acetonitrile (10% trichloroacetic acid for CYP2A6) internal standard mix, and the solution was placed on ice. The mixture was centrifuged at 12,000 rpm for 10 min, and an aliquot (50 μL) of the supernatant was transferred for HPLC analysis.” left out, “[2017]). […]” for “[2017]).”

CYP2E1 [2] = target: T4, CYP2E1 (Homo sapiens, UniProt P05181); test: Time-dependent inhibition study of CYP2E1 in human liver microsomes; type: in vitro ADME; settings: Friedelin 20 μM, 30 min preincubation with HLM and NADPH
T4 construct: effects of Friedelin on CYP2E1 catalyzed reactions (chlorzoxazone 6-hydroxylation) in pooled HLM; from tissue; host or cells: pooled human liver microsomes
T4 sequence (P05181 whole entry): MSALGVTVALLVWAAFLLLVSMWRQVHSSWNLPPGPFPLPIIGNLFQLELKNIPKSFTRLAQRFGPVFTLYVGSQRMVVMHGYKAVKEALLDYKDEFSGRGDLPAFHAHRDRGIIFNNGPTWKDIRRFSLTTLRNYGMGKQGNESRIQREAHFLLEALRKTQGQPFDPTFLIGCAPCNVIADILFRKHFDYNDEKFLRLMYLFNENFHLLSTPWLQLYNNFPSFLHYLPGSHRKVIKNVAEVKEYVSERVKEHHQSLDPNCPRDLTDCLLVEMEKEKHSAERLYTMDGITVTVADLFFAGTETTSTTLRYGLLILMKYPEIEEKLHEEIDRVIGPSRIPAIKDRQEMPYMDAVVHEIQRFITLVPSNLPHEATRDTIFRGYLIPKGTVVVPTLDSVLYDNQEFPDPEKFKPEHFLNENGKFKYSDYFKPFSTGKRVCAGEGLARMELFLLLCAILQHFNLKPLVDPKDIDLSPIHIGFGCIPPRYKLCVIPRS
Description: (§5) To determine whether Friedelin could inhibit the activity of CYP3A4 and 2E1 in a time-dependent manner, Friedelin (20 μM) was preincubated with HLMs (1 mg/mL) in the presence of an NADPH-generating system for 30 min at 37 °C. After incubation, an aliquot (20 μL) was transferred to another incubation tube (final volume 200 μL) containing an NADPH-generating system and probe substrates whose final concentrations were approximate to Km. Then, further incubations were performed to measure the residual activity. After being incubated for different time (0–30 min), the reactions were terminated by adding a 100 μL acetonitrile internal standard mix and then placed on ice; the corresponding metabolites were determined by HPLC.

CYP2D6 = target: T5, CYP2D6 (Homo sapiens, UniProt P10635); test: CYP2D6 inhibition in pooled human liver microsomes (dextromethorphan O-demethylation); type: in vitro ADME; settings: Friedelin 100 μM, pooled HLMs
T5 construct: from tissue; host or cells: human liver microsomes
T5 sequence (P10635 whole entry): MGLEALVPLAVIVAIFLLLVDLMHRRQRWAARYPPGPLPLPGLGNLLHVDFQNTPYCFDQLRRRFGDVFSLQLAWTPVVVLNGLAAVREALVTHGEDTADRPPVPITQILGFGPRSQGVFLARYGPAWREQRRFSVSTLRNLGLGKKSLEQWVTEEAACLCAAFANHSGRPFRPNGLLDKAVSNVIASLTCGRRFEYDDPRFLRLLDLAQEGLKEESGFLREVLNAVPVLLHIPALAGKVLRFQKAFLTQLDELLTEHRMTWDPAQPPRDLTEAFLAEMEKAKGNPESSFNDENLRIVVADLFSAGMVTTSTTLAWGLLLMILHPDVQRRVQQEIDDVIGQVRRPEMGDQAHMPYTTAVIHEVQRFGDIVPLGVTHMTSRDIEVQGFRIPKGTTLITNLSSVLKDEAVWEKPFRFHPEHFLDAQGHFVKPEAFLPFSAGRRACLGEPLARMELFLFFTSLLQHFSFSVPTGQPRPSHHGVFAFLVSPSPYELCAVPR
Description: as §1
as §2, with “There was a 3 min preincubation period (at 37 °C) before the reaction was initiated by adding an NADPH-generating system. The reaction was terminated by adding a 100 μL acetonitrile (10% trichloroacetic acid for CYP2A6) internal standard mix, and the solution was placed on ice. The mixture was centrifuged at 12,000 rpm for 10 min, and an aliquot (50 μL) of the supernatant was transferred for HPLC analysis.” left out, “[2017]). […]” for “[2017]).”

CYP1A2 = target: T6, CYP1A2 (Homo sapiens, UniProt P05177); test: CYP1A2 inhibition in pooled human liver microsomes (phenacetin O-demethylation); type: in vitro ADME; settings: Friedelin 100 μM, pooled HLMs
T6 construct: from tissue; host or cells: human liver microsomes
T6 sequence (P05177 1-516): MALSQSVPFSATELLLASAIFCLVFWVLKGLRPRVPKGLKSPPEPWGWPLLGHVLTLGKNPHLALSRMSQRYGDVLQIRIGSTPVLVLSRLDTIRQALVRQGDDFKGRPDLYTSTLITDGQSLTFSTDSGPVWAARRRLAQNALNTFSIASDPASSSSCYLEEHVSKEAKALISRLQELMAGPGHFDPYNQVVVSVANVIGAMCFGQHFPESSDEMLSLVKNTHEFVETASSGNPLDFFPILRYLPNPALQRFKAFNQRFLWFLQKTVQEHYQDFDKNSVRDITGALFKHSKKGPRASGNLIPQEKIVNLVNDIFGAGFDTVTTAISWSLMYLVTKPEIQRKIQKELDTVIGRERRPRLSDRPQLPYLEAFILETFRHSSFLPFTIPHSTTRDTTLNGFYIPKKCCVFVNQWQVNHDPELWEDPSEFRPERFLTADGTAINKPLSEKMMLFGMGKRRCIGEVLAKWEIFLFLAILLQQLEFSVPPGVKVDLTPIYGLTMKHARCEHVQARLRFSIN
Description: as §1
as §2, with “There was a 3 min preincubation period (at 37 °C) before the reaction was initiated by adding an NADPH-generating system. The reaction was terminated by adding a 100 μL acetonitrile (10% trichloroacetic acid for CYP2A6) internal standard mix, and the solution was placed on ice. The mixture was centrifuged at 12,000 rpm for 10 min, and an aliquot (50 μL) of the supernatant was transferred for HPLC analysis.” left out, “[2017]). […]” for “[2017]).”

CYP2E1 [3] = target: T4, CYP2E1; test: CYP2E1 inhibition in pooled human liver microsomes (chlorzoxazone 6-hydroxylation); type: in vitro ADME; settings: pooled HLMs
Description: as §1, §2, §3, §4

CYP2C8 = target: T7, CYP2C8 (Homo sapiens, UniProt P10632); test: CYP2C8 inhibition in pooled human liver microsomes (paclitaxel 6α-hydroxylation); type: in vitro ADME; settings: Friedelin 100 μM, pooled HLMs
T7 construct: from tissue; host or cells: human liver microsomes
T7 sequence (P10632 1-490): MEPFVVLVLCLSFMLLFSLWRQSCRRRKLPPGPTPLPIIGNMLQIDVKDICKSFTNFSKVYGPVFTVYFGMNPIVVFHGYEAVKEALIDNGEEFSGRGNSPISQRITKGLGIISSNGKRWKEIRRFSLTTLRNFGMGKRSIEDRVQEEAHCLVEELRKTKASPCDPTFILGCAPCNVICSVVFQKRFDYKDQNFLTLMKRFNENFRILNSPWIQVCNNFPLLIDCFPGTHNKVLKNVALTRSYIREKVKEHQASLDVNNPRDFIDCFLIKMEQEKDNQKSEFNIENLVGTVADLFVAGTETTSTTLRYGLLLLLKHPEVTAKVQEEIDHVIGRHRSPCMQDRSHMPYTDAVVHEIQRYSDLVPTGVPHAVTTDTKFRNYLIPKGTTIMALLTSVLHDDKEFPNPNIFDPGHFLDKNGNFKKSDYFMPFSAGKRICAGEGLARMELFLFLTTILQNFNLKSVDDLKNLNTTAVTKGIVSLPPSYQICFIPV
Description: as §1
as §2, with “There was a 3 min preincubation period (at 37 °C) before the reaction was initiated by adding an NADPH-generating system. The reaction was terminated by adding a 100 μL acetonitrile (10% trichloroacetic acid for CYP2A6) internal standard mix, and the solution was placed on ice. The mixture was centrifuged at 12,000 rpm for 10 min, and an aliquot (50 μL) of the supernatant was transferred for HPLC analysis.” left out, “[2017]). […]” for “[2017]).”

CYP2A6 = target: T8, CYP2A6 (Homo sapiens, UniProt P11509); test: CYP2A6 inhibition in pooled human liver microsomes (coumarin 7-hydroxylation); type: in vitro ADME; settings: Friedelin 100 μM, pooled HLMs
T8 construct: from tissue; host or cells: human liver microsomes
T8 sequence (P11509 1-494): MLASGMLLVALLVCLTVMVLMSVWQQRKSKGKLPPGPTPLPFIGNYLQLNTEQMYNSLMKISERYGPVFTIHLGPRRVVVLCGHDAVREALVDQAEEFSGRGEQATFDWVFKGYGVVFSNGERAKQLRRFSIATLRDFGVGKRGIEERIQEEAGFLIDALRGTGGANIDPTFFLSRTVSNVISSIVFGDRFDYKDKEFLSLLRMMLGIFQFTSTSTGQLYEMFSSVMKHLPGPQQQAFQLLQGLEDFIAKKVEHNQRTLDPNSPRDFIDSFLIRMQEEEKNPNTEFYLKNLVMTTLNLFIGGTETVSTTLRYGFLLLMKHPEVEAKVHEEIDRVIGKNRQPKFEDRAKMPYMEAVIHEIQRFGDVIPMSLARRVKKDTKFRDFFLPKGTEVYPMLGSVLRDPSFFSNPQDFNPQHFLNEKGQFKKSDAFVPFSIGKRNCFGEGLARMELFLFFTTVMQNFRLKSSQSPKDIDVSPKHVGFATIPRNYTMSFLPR
Description: as §1
as §2, with “There was a 3 min preincubation period (at 37 °C) before the reaction was initiated by adding an NADPH-generating system. The reaction was terminated by adding a 100 μL acetonitrile (10% trichloroacetic acid for CYP2A6) internal standard mix, and the solution was placed on ice. The mixture was centrifuged at 12,000 rpm for 10 min, and an aliquot (50 μL) of the supernatant was transferred for HPLC analysis.” left out, “[2017]). […]” for “[2017]).”

CYP3A4 [4] = target: T1, CYP3A4; test: Time-dependent inhibition study of CYP3A4 in human liver microsomes; type: in vitro ADME
Description: as §5, with “HPLC. To determine the Ki and kinact values for the inactivation of CYP3A4, the incubations were conducted using higher probe substrate concentrations (approximately 4-fold Km values) and various concentrations of Friedelin (0–50 μM) after different preincubation times (0–30 min), with a two-step incubation scheme, as described above.” for “HPLC.”

SMILES: C[C@H]1C(=O)CC[C@@H]2[C@]1(C)CC[C@H]1[C@@]2(C)CC[C@@]2(C)[C@@H]3CC(C)(C)CC[C@]3(C)CC[C@]12C [Friedelin]
- Effect on ATPase activity of P-glycoprotein (P-glycoprotein (P-gp)): could suppress ATPase activity
- Mode of inhibition of CYP3A4 (CYP3A4 [1]; Lineweaver–Burk plots): noncompetitive
- activity at 100 μM (CYP3A4 [1]; human, pooled human liver microsomes, pH 7.4, probe testosterone (6β-hydroxylation), Friedelin 100 μM, testosterone 6β-hydroxylation, read-out: CYP3A4 activity, % of control activity): 7.5%
- Ki (CYP3A4 [1]; secondary Lineweaver–Burk plot, testosterone 20–100 μM): 6.16 µM
- IC50 (CYP3A4 [1]; testosterone 6β-hydroxylation): 10.8 µM
- Inhibition of CYP2C9 activity (CYP2C9): could not inhibit
- Inhibition of CYP2C19 activity (CYP2C19): could not inhibit
- Time-dependent inhibition of CYP2E1 activity (CYP2E1 [2]): not affected
- Inhibition of CYP2D6 activity (CYP2D6): could not inhibit
- Inhibition of CYP1A2 activity (CYP1A2): could not inhibit
- Mode of inhibition of CYP2E1 (CYP2E1 [3]; Lineweaver–Burk plots): competitive
- activity at 100 μM (CYP2E1 [3]; human, pooled human liver microsomes, pH 7.4, probe chlorzoxazone (6-hydroxylation), Friedelin 100 μM, chlorzoxazone 6-hydroxylation, read-out: CYP2E1 activity, % of control activity): 18.9%
- IC50 (CYP2E1 [3]; chlorzoxazone 6-hydroxylation): 22.5 µM
- Ki (CYP2E1 [3]; secondary Lineweaver–Burk plot, chlorzoxazone 25–200 μM): 18 µM
- Inhibition of CYP2C8 activity (CYP2C8): could not inhibit
- Inhibition of CYP2A6 activity (CYP2A6): could not inhibit
- Time-dependent inhibition of CYP3A4 activity (CYP3A4 [4]; Friedelin 20 μM, 30 min preincubation with HLM and NADPH): decreased with the incubation time
- kinact/KI (CYP3A4 [4]; human, human liver microsomes, HLM, Friedelin 0–50 μM, preincubation 0–30 min with NADPH, read-out: Kinact/Ki for CYP3A4 inactivation (converted)): 80.7 M⁻¹ s⁻¹
- CYP3A4 inactivated each minute (Kinact) (CYP3A4 [4]; saturating concentration of Friedelin incubated with HLM): approximately 5.9%
